The results in this text go back to ChEMBL document CHEMBL1139680, “2,4-Disubstituted piperidines as selective CC chemokine receptor 3 (CCR3) antagonists: synthesis and selectivity” (Bioorg Med Chem Lett, 2006).

pEC50, pIC50, pKi: −log10 of the molar value.

The target of series [1] is T1, C-C chemokine receptor type 3 (Homo sapiens, UniProt P51677).
T1 sequence (P51677 whole entry): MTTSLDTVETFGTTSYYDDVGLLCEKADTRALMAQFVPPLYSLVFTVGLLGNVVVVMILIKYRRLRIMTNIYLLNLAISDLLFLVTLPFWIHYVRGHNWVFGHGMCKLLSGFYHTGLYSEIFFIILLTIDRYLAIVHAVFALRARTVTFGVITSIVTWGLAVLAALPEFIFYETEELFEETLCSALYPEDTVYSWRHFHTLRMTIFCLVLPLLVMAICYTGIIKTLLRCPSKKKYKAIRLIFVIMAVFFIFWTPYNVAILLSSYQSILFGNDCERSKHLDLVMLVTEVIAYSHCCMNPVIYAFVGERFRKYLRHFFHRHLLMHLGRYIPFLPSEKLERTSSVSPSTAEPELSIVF
In words: Binding affinity to CCR3.

Series [2] has as its target Sodium-dependent dopamine transporter (Homo sapiens, UniProt Q01959). In words: Inhibition of DAT.
For series [3], the target named is Sodium-dependent serotonin transporter (Homo sapiens, UniProt P31645). In words: Inhibition of 5HTT.
Series [4] deals with Sodium-dependent noradrenaline transporter (Homo sapiens, UniProt P23975). In words: Inhibition of NET.
Series [5] is described as follows: Oral bioavailability in cynomolgus monkey at 5 mg/kg, po. The series is classed as ADME, organism-based, Macaca fascicularis. The conditions noted are these: in vivo.
Series [6] is described as follows: Cmax in cynomolgus monkeys after 5 mg/kg oral dose. As to conditions: cynomolgus monkey, in vivo. Details: dose 5 mg/kg, route oral. The series is classed as ADME, organism-based, Macaca fascicularis.
Series [7] in a line: Cmax in mice after 10 mg/kg oral dose. It counts as ADME, organism-based. Details: dose 10 mg/kg, route oral. The conditions noted are these: mouse, in vivo.
Series [8] deals with Eosinophil. As to the kind of experiment: Inhibition of eotaxin-induced calcium mobilization in eosinophil. It counts as functional, cell-based. The conditions noted are these: Homo sapiens. On the technique in general: A change in cytosolic calcium serves as a functional read-out for many receptors and channels.
The nature of series [9]: Half life in cynomolgus monkey at 5 mg/kg, po. Also noted: dose 5 mg/kg, route oral. It counts as ADME, organism-based, Macaca fascicularis. The conditions noted are these: in vivo.
Series [10] can be described thus: Volume of distribution in mouse ar 2 mg/kg, iv. It counts as ADME, organism-based. Details: dose 2 mg/kg, route intravenous. The conditions noted are these: in vivo, read-out: Vdss.
Series [11] can be described thus: Clearance in cynomolgus monkey at 2 mg/kg, iv. The series is classed as ADME, organism-based, Macaca fascicularis. Details: dose 2 mg/kg, route intravenous. The conditions noted are these: in vivo.
A short description of series [12]: Volume of distribution in cynomolgus monkey at 2 mg/kg, iv. The conditions noted are these: in vivo, read-out: Vdss. The series is classed as ADME, organism-based, Macaca fascicularis. Also noted: dose 2 mg/kg, route intravenous.
A short description of series [13]: Half life in mouse at 10 mg/kg, po. The series is classed as ADME, organism-based. Details: dose 10 mg/kg, route oral. The conditions noted are these: in vivo.
A short description of series [14]: Clearance in mouse at 2 mg/kg, iv. The conditions noted are these: in vivo. Also noted: dose 2 mg/kg, route intravenous. The series is classed as ADME, organism-based.
Series [15] concerns Eosinophil. In words: Inhibition of eotaxin-induced human eosinophil chemotaxis. It counts as functional, cell-based.
The nature of series [16]: Oral bioavailability in mouse at 10 mg/kg, po. It counts as ADME, organism-based. As to conditions: in vivo.

Sequence of Sodium-dependent dopamine transporter (Q01959 whole entry): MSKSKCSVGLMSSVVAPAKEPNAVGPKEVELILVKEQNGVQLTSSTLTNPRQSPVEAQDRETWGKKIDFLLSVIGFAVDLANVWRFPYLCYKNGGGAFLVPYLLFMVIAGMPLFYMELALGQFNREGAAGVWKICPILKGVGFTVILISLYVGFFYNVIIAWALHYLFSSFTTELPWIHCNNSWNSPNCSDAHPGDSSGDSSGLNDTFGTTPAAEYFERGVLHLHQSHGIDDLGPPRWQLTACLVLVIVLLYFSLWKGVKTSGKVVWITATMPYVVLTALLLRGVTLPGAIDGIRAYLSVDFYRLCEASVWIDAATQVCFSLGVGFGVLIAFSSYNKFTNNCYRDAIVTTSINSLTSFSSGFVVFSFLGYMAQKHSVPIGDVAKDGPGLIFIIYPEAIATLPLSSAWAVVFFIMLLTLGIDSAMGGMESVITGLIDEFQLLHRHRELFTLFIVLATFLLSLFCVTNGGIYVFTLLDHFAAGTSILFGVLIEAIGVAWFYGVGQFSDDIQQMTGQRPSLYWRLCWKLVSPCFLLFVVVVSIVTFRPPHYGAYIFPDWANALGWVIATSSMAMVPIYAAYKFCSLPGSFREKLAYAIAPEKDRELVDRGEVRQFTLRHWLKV
Sequence of Sodium-dependent serotonin transporter (P31645 whole entry): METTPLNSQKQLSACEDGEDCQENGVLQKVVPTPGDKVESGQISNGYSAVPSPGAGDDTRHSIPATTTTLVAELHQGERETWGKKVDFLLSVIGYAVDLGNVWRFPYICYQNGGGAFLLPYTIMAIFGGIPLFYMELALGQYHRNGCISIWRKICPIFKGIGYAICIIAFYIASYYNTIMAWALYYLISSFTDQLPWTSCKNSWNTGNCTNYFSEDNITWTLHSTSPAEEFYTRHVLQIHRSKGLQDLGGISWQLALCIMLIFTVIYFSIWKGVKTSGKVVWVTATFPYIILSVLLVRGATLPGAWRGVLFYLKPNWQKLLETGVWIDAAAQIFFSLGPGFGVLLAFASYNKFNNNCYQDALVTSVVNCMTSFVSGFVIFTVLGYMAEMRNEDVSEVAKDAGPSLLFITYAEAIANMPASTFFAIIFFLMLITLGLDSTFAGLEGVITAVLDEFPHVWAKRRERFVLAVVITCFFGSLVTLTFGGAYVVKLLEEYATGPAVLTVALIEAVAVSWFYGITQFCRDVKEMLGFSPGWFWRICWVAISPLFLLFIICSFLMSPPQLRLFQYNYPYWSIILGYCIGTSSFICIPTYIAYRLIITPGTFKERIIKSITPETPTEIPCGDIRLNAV
Sequence of Sodium-dependent noradrenaline transporter (P23975 whole entry): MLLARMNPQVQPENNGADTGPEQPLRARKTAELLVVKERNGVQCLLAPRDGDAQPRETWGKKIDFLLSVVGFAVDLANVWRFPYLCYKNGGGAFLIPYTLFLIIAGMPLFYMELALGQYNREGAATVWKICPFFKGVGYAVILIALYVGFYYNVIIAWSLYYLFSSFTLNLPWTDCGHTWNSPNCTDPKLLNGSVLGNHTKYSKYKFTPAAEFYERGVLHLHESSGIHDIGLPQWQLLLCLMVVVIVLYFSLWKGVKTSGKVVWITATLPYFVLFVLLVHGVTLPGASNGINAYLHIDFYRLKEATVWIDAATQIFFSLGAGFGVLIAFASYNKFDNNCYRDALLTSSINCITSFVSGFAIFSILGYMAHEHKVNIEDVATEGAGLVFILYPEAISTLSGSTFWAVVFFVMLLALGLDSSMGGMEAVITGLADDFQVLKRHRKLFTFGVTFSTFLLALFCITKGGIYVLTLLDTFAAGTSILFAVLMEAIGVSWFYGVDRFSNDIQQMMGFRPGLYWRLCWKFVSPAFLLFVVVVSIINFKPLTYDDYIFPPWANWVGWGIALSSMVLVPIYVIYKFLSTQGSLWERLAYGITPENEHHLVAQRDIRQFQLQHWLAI

Broadly, the IC50 is the concentration at which inhibition is half-maximal. In the case of `CC(=O)c1cc(NC(=O)NCCC[C@H]2C[C@H](Cc3ccc(F)cc3)CCN2CC(F)(F)F)cc(C(C)=O)c1`, in series [1], the 50% inhibitory concentration (IC50) was 1380 nM (antagonist).
By pKi is commonly meant the negative decadic logarithm of the Ki, by convention in mol/L. As for `CC(=O)c1cc(NC(=O)NCCC[C@H]2C[C@H](Cc3ccc(F)cc3)CCN2)cc(C(C)=O)c1`, the pKi was 6.92 in series [2], 8.46 in series [3] and 7.02 in series [4]. Further, the IC50 in series [1] is 0.5 nM (antagonist).
Take `CC(=O)c1cccc(NC(=O)NCCC[C@H]2C[C@H](Cc3ccc(F)cc3)CCN2C)c1`: the pKi in [2] is 7.02; in series [3], 6.24; in [4], 6.59. For the same molecule, the half-maximal inhibitory concentration (IC50) in series [1] is on record as 1.7 nM (antagonist).
Taken in the same sequence, the figures for `C=CCN1CC[C@@H](Cc2ccc(F)cc2)C[C@@H]1CCCNC(=O)Nc1cc(C(C)=O)cc(C(C)=O)c1` were 6.53, 7.16, 6.06 and 1 nM (antagonist).
For the molecule `CC(=O)c1cc(NC(=O)NCCC[C@H]2C[C@H](Cc3ccc(F)cc3)CCN2CCO)cc(C(C)=O)c1`, the results for the pKi in series [2], in series [3] and in series [4] were 6.35, 7.40 and 5.86, respectively. In series [1], the IC50 was 0.9 nM (antagonist).
Taken in the same sequence, the figures for `CC(=O)c1cccc(NC(=O)NCCC[C@H]2C[C@H](Cc3ccc(F)cc3)CCN2)c1` were 6.66, 7.74, 6.63 and 1.4 nM (antagonist).
For the molecule `CC(=O)c1cc(NC(=O)NCCC[C@H]2C[C@H](Cc3ccc(F)cc3)CCN2CCF)cc(C(C)=O)c1`, the pKi was 6.19 in [2], 7.31 in series [3] and 6.50 in series [4]. The IC50 in series [1] was 2.3 nM (antagonist).
Taken in the same sequence, the figures for `C#CCN1CC[C@@H](Cc2ccc(F)cc2)C[C@@H]1CCCNC(=O)Nc1cc(C(C)=O)cc(C(C)=O)c1` were 6.21, 6.52, 6.28 and 1.9 nM (antagonist).
On the same counts, the results for `CC(=O)c1cc(NC(=O)NCCC[C@H]2C[C@H](Cc3ccc(F)cc3)CCN2C(=N)N)cc(C(C)=O)c1` are 7.51, 7.72, 6.41 and 4.3 nM (antagonist).
Taken in the same sequence, the figures for `CC(=O)c1cccc(NC(=O)NCCC[C@H]2C[C@H](Cc3ccc(F)cc3)CCN2CCO)c1` were 5.65, 7.30, 5.74 and 7 nM (antagonist).
`CC(=O)c1cccc(NC(=O)NCCC[C@H]2C[C@H](Cc3ccc(F)cc3)CCN2CC2CC2)c1`: the results for the negative-log Ki (pKi) in [2], in series [3] and in series [4] were 6.60, 6.93 and 5.46, respectively. For the same molecule, the concentration for half-maximal inhibition (IC50) in series [1] is recorded as 2.5 nM (antagonist).
By bioavailability is commonly meant dose-corrected exposure relative to a reference, in per cent. By Cmax is commonly meant the peak of the concentration-time curve. For orientation: pIC50 means the IC50 on a negative log10 scale, so that one unit is a factor of ten. As a reminder, the half-life is how long it takes for the measured level to halve. Broadly, the clearance is a measure of how efficiently the substance is removed, as volume per time. By pEC50 is commonly meant the EC50 on a negative log10 scale, so that one unit is a factor of ten. As to `CCCN1CC[C@@H](Cc2ccc(F)cc2)C[C@@H]1CCCNC(=O)Nc1cccc(C(C)=O)c1`, the bioavailability in [5] turned out to be 18%; in [16] it was 36%. For the same molecule, the figures for the Cmax in series [6] and in [7] were 989 nM and 274 nM, respectively. The negative-log IC50 (pIC50) in the series on Eosinophil [8] is 7.59. Moreover, the results for the half-life in [9] and in [13] were 9 h and 1.4 h, respectively. The Vd in [10] worked out at 8 L/kg; in series [12], 3.1 L/kg. In addition, the clearance in series [11] was 6.67 mL/min/kg; in series [14] it was 177 mL/min/kg. In addition, the negative-log Ki (pKi) was 6.12 in series [2], 6.53 in series [3] and 5.38 in series [4]. In addition, the half-maximal inhibitory concentration (IC50) in [1] is 2 nM (antagonist). Moreover, the negative-log EC50 (pEC50) in the series on Eosinophil [15] is 7.72.
As to `C=CCN1CC[C@@H](Cc2ccc(F)cc2)C[C@@H]1CCCNC(=O)Nc1cccc(C(C)=O)c1`, the pKi in series [2] is 6.07; in series [3], 6.66; in series [4], 5.91. Also, the half-inhibitory concentration (IC50) in series [1] is recorded as 4.1 nM (antagonist).
Taken in the same sequence, the figures for `CC(=O)CN1CC[C@@H](Cc2ccc(F)cc2)C[C@@H]1CCCNC(=O)Nc1cc(C(C)=O)cc(C(C)=O)c1` were 6.12, 7.96, 6.42 and 0.9 nM (antagonist).
Turning to `CC(=O)c1cc(NC(=O)NCCC[C@H]2C[C@H](Cc3ccc(F)cc3)CCN2C(C)=O)cc(C(C)=O)c1`, the pIC50 in the series with Eosinophil [8] was 6.88. The pKi was 5.91 in series [2], 5.26 in [3] and 5.86 in series [4]. Moreover, the 50% inhibitory concentration (IC50) in series [1] is recorded as 3.9 nM (antagonist). In the series with Eosinophil [15], this molecule had a negative logarithm of the EC50 (pEC50) of less than 7.00.
With `CC(=O)c1cc(NC(=O)NCCC[C@H]2C[C@H](Cc3ccc(F)cc3)CCN2CCCO)cc(C(C)=O)c1`, the negative-log Ki (pKi) in series [2] is 6.22; in series [3], 6.67; in [4], 6.30. In [1], the IC50 is recorded as 1.3 nM (antagonist).
On the same counts, the results for `CCC(=O)N1CC[C@@H](Cc2ccc(F)cc2)C[C@@H]1CCCNC(=O)Nc1cc(C(C)=O)cc(C(C)=O)c1` are 5.68, 6.65, 5.03 and 5.8 nM (antagonist).
Taken in the same sequence, the figures for `CC(=O)c1cc(NC(=O)NCCC[C@H]2C[C@H](Cc3ccc(F)cc3)CCN2CC(N)=O)cc(C(C)=O)c1` were 5.58, 6.15, 5.30 and 3.6 nM (antagonist).
`CCCN1CC[C@@H](Cc2ccc(F)cc2)C[C@@H]1CCCNC(=O)Nc1cc(C(C)=O)cc(C(C)=O)c1`: in the series on Eosinophil [8], the pIC50 was 8.92. Moreover, the pKi in series [2] is 6.80; in series [3] it was 6.78; in [4], 5.83. Also, the concentration for half-maximal inhibition (IC50) in series [1] is 0.7 nM (antagonist). The molecule further showed a pEC50 with Eosinophil [15] of 8.33.
On to `CC(=O)c1cc(NC(=O)NCCC[C@H]2C[C@H](Cc3ccc(F)cc3)CCN2CC(F)F)cc(C(C)=O)c1`, for which the results for the negative logarithm of the Ki (pKi) in series [2], in series [3] and in series [4] were 6.03, 6.48 and 5.98, respectively. For the same molecule, the concentration for half-maximal inhibition (IC50) in series [1] is given as 12.4 nM (antagonist).
On the same counts, the results for `CC(=O)c1cccc(NC(=O)NCCC[C@H]2C[C@H](Cc3ccccc3)CCN2)c1` (racemic) are 7.49, 7.38, 7.41 and 6 nM (antagonist).
Regarding `N#Cc1cccc(NC(=O)NCCC[C@H]2C[C@H](Cc3ccccc3)CCN2)c1` (racemic), the IC50 in series [1] is 22 nM (antagonist).
Same read-out and setting: the same measure for `N#Cc1cccc(NC(=O)NCCCC[C@H]2C[C@H](Cc3ccccc3)CCN2)c1` (racemic): 142 nM (antagonist); for `N#Cc1cccc(NC(=O)NCCC[C@@H]2C[C@H](Cc3ccccc3)CCN2)c1` (racemic): 386 nM (antagonist); for `N#Cc1cccc(NC(=O)NCC[C@H]2C[C@H](Cc3ccccc3)CCN2)c1` (racemic): 185 nM (antagonist).
Turning to `N#Cc1cccc(NC(=O)NCCC[C@H]2C[C@H](Cc3ccccc3)CCN2)c1` (stereo in doubt; 4), the negative-log Ki (pKi) in series [2] is 7.47; in series [3], 7.46; in series [4] it was 7.43. The half-inhibitory concentration (IC50) in [1] is 13 nM (antagonist).
Taken in the same sequence, the figures for `N#Cc1cccc(NC(=O)NCCC[C@H]2C[C@H](Cc3ccccc3)CCN2)c1` (stereo in doubt; 5) were 8.00, 7.27, 7.34 and 644 nM (antagonist).
